Target: rhSYK (Homo sapiens (Human), UniProt P43405)
Conditions: read-out: rhSYK activity

IC50 [nM] | SMILES
< 100 | CC(O)(c1ncc(-c2cccc(Nc3nccc(C(F)(F)F)n3)c2)s1)C1CCNCC1 (stereo not drawn) [Example 15(2), 1-(piperidin-4-yl)-1-[5-(3-{[4-(trifluoromethyl)pyrimidin-2-yl]amino}phenyl)-1,3-thiazol-2-yl]ethanol]
< 100 | Cc1cc(Nc2nccc(C)n2)cc(-c2cnc(C3(O)C4CC5CC3CC(O)(C5)C4)s2)c1 (stereo not drawn) [Example 4B-29]
< 100 | Cc1cc(Nc2nccc(C(F)(F)F)n2)cc(-c2cnc(C3(O)CCC4(CC3)OCCO4)s2)c1 [Example 4B-15, 8-[5-(3-methyl-5-{[4-(trifluoromethyl)pyrimidin-2-yl]amino}phenyl)-1,3-thiazol-2-yl]-1,4-dioxaspiro[4.5]decan-8-ol]
< 100 | OC(c1ncc(-c2cc(Nc3nccc(C(F)(F)F)n3)cc(N3CCOCC3)c2)s1)(C1CC1)C1CC1 [Example 24, dicyclopropyl{5-[3-(morpholin-4-yl)-5-{[4-(trifluoromethyl)pyrimidin-2-yl]amino}phenyl]-1,3-thiazol-2-yl}methanol]
100 to 1000 | Cc1cc(Nc2nccc(C(F)(F)F)n2)cc(-c2cnc(C(C)(O)c3ccc(C(C)(C)O)cc3)s2)c1 (stereo not drawn) [Example 9-1]
< 100 | Cc1cc(Nc2nccc(C)n2)cc(-c2cnc(C3(O)CCC(C(=O)O)[C@@H]4CCCC[C@H]43)s2)c1 (stereo partly drawn) [Example 4B-21]
< 100 | OC(c1ncc(-c2cccc(Nc3nccc(C(F)(F)F)n3)c2)s1)(C(F)(F)F)C(F)(F)F [Example 4A-3]
100 to 1000 | CC(C)(c1ncc(-c2cc(Nc3nccc(C(F)(F)F)n3)cc([N+](=O)[O-])c2)s1)S(N)(=O)=O [Example 70, 2-[5-(3-nitro-5-{[4-(trifluoromethyl)pyrimidin-2-yl]amino}phenyl)-1,3-thiazol-2-yl]propane-2-sulfonamide]
< 100 | Cc1cc(Nc2nccc(C(F)(F)F)n2)cc(-c2cnc(C(O)C(F)(F)F)s2)c1 (single isomer, unassigned) [Example 6-3]
100 to 1000 | CC(C)(C)OC(=O)N1CCC(C(C)(O)c2ncc(-c3cccc(Nc4nccc(C(F)(F)F)n4)c3)s2)CC1 (stereo not drawn) [Example 15(1), tert-butyl 4-{1-hydroxy-1-[5-(3-{[4-(trifluoromethyl)pyrimidin-2-yl]amino}phenyl)-1,3-thiazol-2-yl]ethyl}piperidine-1-carboxylate]
< 100 | Cc1cc(Nc2nccc(C)n2)cc(-c2cnc(C3(O)CCC(N)(C(=O)O)CC3)s2)c1 (stereo not drawn) [Example 4C-10]
< 100 | Cc1cc(Nc2nccc(C(F)(F)F)n2)cc(-c2cnc(C3(O)CCN(S(N)(=O)=O)CC3)s2)c1 [Example 49, 4-hydroxy-4-[5-(3-methyl-5-{[4-(trifluoromethyl)pyrimidin-2-yl]amino}phenyl)-1,3-thiazol-2-yl]piperidine-1-sulfonamide]
< 100 | CCOC(=O)C1CCC(O)(c2ncc(-c3cc(C)cc(Nc4nccc(C(F)(F)F)n4)c3)s2)CC1 (mixture of isomers) [Example 32, ethyl 4-hydroxy-4-[5-(3-methyl-5-{[4-(trifluoromethyl)pyrimidin-2-yl]amino}phenyl)-1,3-thiazol-2-yl]cyclohexanecarboxylate]
100 to 1000 | CCOC(=O)C1CCC(c2ncc(-c3cc(C)cc(Nc4nccc(C(F)(F)F)n4)c3)s2)CC1 (stereo not drawn) [Example 35, ethyl 4-[5-(3-methyl-5-{[4-(trifluoromethyl)pyrimidin-2-yl]amino}phenyl)-1,3-thiazol-2-yl]cyclohexanecarboxylate]
< 100 | Cc1cc(Nc2nccc(C(F)(F)F)n2)cc(-c2cnc(C3(O)CCCC(O)C3(C)C)s2)c1 (stereo not drawn) [Example 8B-3]
< 100 | Cc1cc(Nc2nccc(C(F)(F)F)n2)cc(-c2cnc(C3(O)COC(C)(C)OC3)s2)c1 [Example 4B-14]
< 100 | CCOC(=O)N1CCC(O)(c2ncc(-c3cccc(Nc4nccc(C(F)(F)F)n4)c3)s2)CC1 [4D-4]
< 100 | Cc1cc(Nc2nccc(C(F)(F)F)n2)cc(-c2cnc(C3(O)CCC(N(C)C)CC3)s2)c1 (stereo not drawn) [Example 4C-33]
< 100 | Cc1cc(Nc2nccc(C(F)(F)F)n2)cc(-c2cnc(C3(NS(C)(=O)=O)COC3)s2)c1 [Example 60, N-{3-[5-(3-methyl-5-{[4-(trifluoromethyl)pyrimidin-2-yl]amino}phenyl)-1,3-thiazol-2-yl]-oxetan-3-yl}methanesulfonamide]
100 to 1000 | OC1(c2ncc(-c3cc(Nc4nccc(C(F)(F)F)n4)ccc3F)s2)CCC1 [Example 1, 1-[5-(2-fluoro-5-{[4-(trifluoromethyl)pyrimidin-2-yl]amino}phenyl)-1,3-thiazol-2-yl]cyclobutanol]
< 100 | CNC(=O)N1CCC(O)(c2ncc(-c3cc(C)cc(Nc4nccc(C(F)(F)F)n4)c3)s2)CC1 [Example 52, 4-hydroxy-N-methyl-4-[5-(3-methyl-5-{[4-(trifluoromethyl)pyrimidin-2-yl]amino}phenyl)-1,3-thiazol-2-yl]piperidine-1-carboxamide]
< 100 | Cc1cc(Nc2nccc(C(F)(F)F)n2)cc(-c2cnc(C3(O)C[C@H]4CC(=O)C[C@H]4C3)s2)c1 (stereo partly drawn) [Example 4B-20]

IC50 [nM] | SMILES
< 100 | Cc1cc(Nc2nccc(C(F)(F)F)n2)cc(-c2cnc(C(C)(O)C(C)(C)O)s2)c1 (stereo not drawn) [Ex 5-4]
< 100 | Cc1cc(Nc2nccc(C)n2)cc(-c2cnc([C@]3(O)[C@H]4CC5C[C@H]3C[C@](C(=O)O)(C5)C4)s2)c1 [Example 4B-30]
< 100 | Cc1cc(Nc2nccc(C)n2)cc(-c2cnc(C3(O)CCNC(=O)CC3)s2)c1 (stereo not drawn) [4D-7]
< 100 | CC(C)(O)c1ncc(-c2cc(Nc3nccc(C(F)(F)F)n3)cc(C3CC3)c2)s1 [Example 31, 2-[5-(3-cyclopropyl-5-{[4-(trifluoromethyl)pyrimidin-2-yl]amino}phenyl)-1,3-thiazol-2-yl]propan-2-ol]
< 100 | Cc1cc(Nc2nccc(C(F)(F)F)n2)cc(-c2cnc(C3CCC(=O)O3)s2)c1 (stereo not drawn) [Example 4B-60]
100 to 1000 | O=C1C[C@@H]2C[C@@](O)(c3ncc(-c4cccc(Nc5nccc(C(F)(F)F)n5)c4)s3)C[C@@H]2C1 [Example 4B-7]
1000 to 10000 | OC1(c2ncc(-c3cccc(Nc4nccc(C(F)(F)F)n4)c3)s2)CCN(c2ccc(F)cc2)C1 (stereo not drawn) [4D-2]
< 100 | CCNC(=O)Nc1cc(Nc2nccc(C(F)(F)F)n2)cc(-c2cnc(C3CCC(C(N)=O)CC3)s2)c1 (single isomer, unassigned) [Example 20(2), 4-[5-(3-[(ethylcarbamoyl)amino]-5-{[4-(trifluoromethyl)pyrimidin-2-yl]amino}phenyl)-1,3-thiazol-2-yl]cyclohexanecarboxamide]
< 100 | Cc1cc(Nc2nccc(C(F)(F)F)n2)cc(-c2cnc(C(O)CCc3c[nH]cn3)s2)c1 (stereo not drawn) [Example 4A-40, 3-(1H-imidazol-4-yl)-1-[5-(3-methyl-5-{[4-(trifluoromethyl)pyrimidin-2-yl]amino}phenyl)-1,3-thiazol-2-yl]propan-1-ol]
< 100 | Cc1cc(Nc2nccc(C(F)(F)F)n2)cc(-c2cnc(C(C)(C)S(C)(=O)=O)s2)c1 [Example 73, N-(3-methyl-5-{2-[2-(methylsulfonyl)propan-2-yl]-1,3-thiazol-5-yl}phenyl)-4-(trifluoromethyl)pyrimidin-2-amine]
100 to 1000 | O=[N+]([O-])c1cc(Nc2nccc(C(F)(F)F)n2)cc(-c2cnc(C3(O)CCC3)s2)c1 [Example 18, 1-[5-(3-nitro-5-{[4-(trifluoromethyl)pyrimidin-2-yl]amino}phenyl)-1,3-thiazol-2-yl]cyclobutanol]
< 100 | CC(=O)N1CCC(O)(c2ncc(-c3cc(C)cc(Nc4nccc(C(F)(F)F)n4)c3)s2)CC1 [Example 51, 1-(4-hydroxy-4-[5-(3-methyl-5-{[4-(trifluoromethyl)pyrimidin-2-yl]amino}phenyl)-1,3-thiazol-2-yl]piperidin-1-yl)ethanone]
< 100 | O=C(c1ncc(-c2cccc(Nc3nccc(C(F)(F)F)n3)c2)s1)C1CC1 [Example 11, Cyclopropyl[5-(3-{[4-(trifluoromethyl)pyrimidin-2-yl]amino}phenyl)-1,3-thiazol-2-yl]methanone]
< 100 | Cc1cc(Nc2nccc(C)n2)cc(-c2cnc(C3(O)CCC(C)(CC(=O)O)CC3)s2)c1 (single isomer, unassigned) [Example 4C-12]
100 to 1000 | FC(F)(F)c1ccnc(Nc2cc(Br)cc(-c3cncs3)c2)n1 [Intermediate 11, N-[3-bromo-5-(1,3-thiazol-5-yl)phenyl]-4-(trifluoromethyl)pyrimidin-2-amine]
< 100 | Cc1cc(Nc2nccc(C(F)(F)F)n2)cc(-c2cnc(C3(O)CCCC(C)(CC(=O)O)C3)s2)c1 (stereo not drawn) [Example 4C-22]
< 100 | CC(=O)Nc1cc(Nc2nccc(C(F)(F)F)n2)cc(-c2cnc(C(C)(C)S(N)(=O)=O)s2)c1 [Example 72, N-(3-[2-(2-sulfamoylpropan-2-yl)-1,3-thiazol-5-yl]-5-{[4-(trifluoromethyl)pyrimidin-2-yl]amino}phenyl)acetamide]
< 100 | OC1(c2ncc(-c3cc(NCC(F)(F)F)cc(Nc4nccc(C(F)(F)F)n4)c3)s2)CCC1 [Example 27, 1-[5-(3-[(2,2,2-trifluoroethyl)amino]-5-{[4-(trifluoromethyl)pyrimidin-2-yl]amino}phenyl)-1,3-thiazol-2-yl]cyclobutanol]
< 100 | CC(C)(O)c1ncc(-c2cc(Br)cc(Nc3nccc(C(F)(F)F)n3)c2)s1 [Example 4A-4, 2-[5-(3-bromo-5-{[4-(trifluoromethyl)pyrimidin-2-yl]amino}phenyl)-1,3-thiazol-2-yl]propan-2-ol]
< 100 | Cc1cc(Nc2nccc(C(F)(F)F)n2)cc(-c2cnc(C3=CC(=O)NCCC3)s2)c1 [Example 10B-2]
< 100 | Cc1cc(Nc2nccc(C(F)(F)F)n2)cc(-c2cnc(C3(O)CCN(c4ccc(F)cc4)CC3)s2)c1 [4D-12]

SMILES | IC50 [nM]
CCOC(=O)C1CCC(O)(c2ncc(-c3cc(C)cc(N(C(=O)OC(C)(C)C)c4nccc(C(F)(F)F)n4)c3)s2)CC1 (stereo not drawn) [Intermediate 119, Ethyl 4-[5-(3-{(tert-butoxycarbonyl)[4-(trifluoromethyl)pyrimidin-2-yl]amino}-5-methylphenyl)-1,3-thiazol-2-yl]-4-hydroxycyclohexanecarboxylate] | 1000 to 10000
OC1(c2ncc(-c3cccc(Nc4nccc(C(F)(F)F)n4)c3)s2)CC2CCC1N2 (stereo not drawn) [Example 4B-10] | 100 to 1000
